Laboratory results reported in ChEMBL document CHEMBL5223147, “Discovery of a potent and subtype-selective TYK2 degrader based on an allosteric TYK2 inhibitor” (Bioorg Med Chem Lett, 2023).
Calls of active or inactive are those of the source. The rule behind the calls is not given here.

Experiments:
Format in all cases: cell-based
[1] = target: T1, Non-receptor tyrosine-protein kinase TYK2 (Homo sapiens, UniProt P29597); experiment: Induction of TYK2 degradation in human Jurkat cells at 1 uM incubated for 24 hrs in presence of 6-(5-fluoropyridin-2-ylamino)-4-(2-methoxy-3-(methylcarbamoyl)phenylamino)-N-methylnicotinamide by Western blot analysis
T1 sequence (P29597 whole entry): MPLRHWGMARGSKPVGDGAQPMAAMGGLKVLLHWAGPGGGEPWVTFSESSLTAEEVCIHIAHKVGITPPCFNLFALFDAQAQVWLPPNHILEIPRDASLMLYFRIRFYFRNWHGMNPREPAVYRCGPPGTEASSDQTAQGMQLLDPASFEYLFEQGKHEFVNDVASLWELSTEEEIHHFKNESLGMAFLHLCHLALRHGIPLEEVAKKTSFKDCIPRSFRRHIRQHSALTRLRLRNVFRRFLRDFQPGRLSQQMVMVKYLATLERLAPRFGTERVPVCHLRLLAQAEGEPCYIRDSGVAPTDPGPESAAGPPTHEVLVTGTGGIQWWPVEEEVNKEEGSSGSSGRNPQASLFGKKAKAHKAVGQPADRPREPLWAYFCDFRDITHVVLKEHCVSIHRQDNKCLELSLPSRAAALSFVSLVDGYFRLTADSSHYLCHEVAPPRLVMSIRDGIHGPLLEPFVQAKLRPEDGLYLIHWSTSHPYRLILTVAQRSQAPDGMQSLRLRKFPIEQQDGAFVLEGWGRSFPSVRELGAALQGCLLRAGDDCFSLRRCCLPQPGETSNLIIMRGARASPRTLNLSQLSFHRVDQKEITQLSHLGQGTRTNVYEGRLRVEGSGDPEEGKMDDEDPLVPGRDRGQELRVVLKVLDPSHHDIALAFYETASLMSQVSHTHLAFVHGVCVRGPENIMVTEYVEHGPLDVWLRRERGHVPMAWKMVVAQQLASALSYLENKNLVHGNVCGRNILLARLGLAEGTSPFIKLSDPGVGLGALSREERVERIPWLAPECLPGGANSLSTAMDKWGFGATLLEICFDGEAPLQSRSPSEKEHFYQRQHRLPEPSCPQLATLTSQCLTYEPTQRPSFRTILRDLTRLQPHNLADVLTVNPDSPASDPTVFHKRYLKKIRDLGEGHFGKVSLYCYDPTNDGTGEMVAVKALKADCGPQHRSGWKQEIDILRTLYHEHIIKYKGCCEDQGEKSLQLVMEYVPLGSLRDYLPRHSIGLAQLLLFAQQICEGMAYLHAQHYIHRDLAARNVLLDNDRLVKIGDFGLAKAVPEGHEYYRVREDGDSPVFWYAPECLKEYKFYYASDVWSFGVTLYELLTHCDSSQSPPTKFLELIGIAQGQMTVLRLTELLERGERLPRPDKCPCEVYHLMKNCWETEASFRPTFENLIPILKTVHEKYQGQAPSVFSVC

[2] = target: T1, Non-receptor tyrosine-protein kinase TYK2; experiment: Induction of TYK2 degradation in human Jurkat cells at 10 uM incubated for 24 hrs by Western blot analysis
[3] = target: Tyrosine-protein kinase JAK2 (Homo sapiens) (UniProt O60674); experiment: Induction of JAK2 degradation in human Jurkat cells at 1 uM incubated for 6 hrs by Western blot analysis
Sequence of Tyrosine-protein kinase JAK2 (Homo sapiens) (O60674 whole entry): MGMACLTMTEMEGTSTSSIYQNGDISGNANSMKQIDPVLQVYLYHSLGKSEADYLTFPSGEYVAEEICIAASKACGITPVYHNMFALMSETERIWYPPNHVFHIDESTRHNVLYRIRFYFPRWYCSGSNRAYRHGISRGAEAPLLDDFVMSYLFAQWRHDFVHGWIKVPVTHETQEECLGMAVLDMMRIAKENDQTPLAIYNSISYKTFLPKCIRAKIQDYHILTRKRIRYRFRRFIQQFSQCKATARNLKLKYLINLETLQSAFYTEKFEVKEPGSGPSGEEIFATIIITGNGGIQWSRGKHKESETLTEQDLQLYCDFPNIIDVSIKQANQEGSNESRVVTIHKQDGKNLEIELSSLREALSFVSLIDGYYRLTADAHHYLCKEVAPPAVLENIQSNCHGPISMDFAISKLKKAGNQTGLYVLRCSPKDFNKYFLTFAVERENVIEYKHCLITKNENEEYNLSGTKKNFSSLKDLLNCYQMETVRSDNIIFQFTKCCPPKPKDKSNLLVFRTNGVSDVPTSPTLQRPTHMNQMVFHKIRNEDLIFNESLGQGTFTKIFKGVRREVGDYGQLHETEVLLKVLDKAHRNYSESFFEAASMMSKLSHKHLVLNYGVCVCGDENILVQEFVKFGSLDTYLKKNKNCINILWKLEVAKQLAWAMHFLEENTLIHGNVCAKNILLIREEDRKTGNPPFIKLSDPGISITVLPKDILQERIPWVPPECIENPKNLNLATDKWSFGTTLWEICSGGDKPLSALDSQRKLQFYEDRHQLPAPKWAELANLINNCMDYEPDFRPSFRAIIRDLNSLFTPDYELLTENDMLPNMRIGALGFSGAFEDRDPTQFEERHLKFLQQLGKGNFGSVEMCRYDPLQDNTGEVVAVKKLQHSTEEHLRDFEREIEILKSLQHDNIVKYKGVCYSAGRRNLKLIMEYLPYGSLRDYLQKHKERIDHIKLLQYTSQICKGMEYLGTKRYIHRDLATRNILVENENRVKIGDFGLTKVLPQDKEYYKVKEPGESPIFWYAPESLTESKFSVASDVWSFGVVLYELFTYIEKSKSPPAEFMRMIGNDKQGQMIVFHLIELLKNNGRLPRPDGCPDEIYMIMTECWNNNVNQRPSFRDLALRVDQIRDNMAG

[4] = target: T1, Non-receptor tyrosine-protein kinase TYK2; experiment: Induction of TYK2 degradation in human Jurkat cells at 10 uM incubated for 24 hrs by Western blot analysis relative to control
[5] = target: T2, Tyrosine-protein kinase JAK1 (Homo sapiens, UniProt P23458); experiment: Induction of JAK1 degradation in human Jurkat cells at 1 uM incubated for 6 hrs by Western blot analysis
T2 sequence (P23458 whole entry): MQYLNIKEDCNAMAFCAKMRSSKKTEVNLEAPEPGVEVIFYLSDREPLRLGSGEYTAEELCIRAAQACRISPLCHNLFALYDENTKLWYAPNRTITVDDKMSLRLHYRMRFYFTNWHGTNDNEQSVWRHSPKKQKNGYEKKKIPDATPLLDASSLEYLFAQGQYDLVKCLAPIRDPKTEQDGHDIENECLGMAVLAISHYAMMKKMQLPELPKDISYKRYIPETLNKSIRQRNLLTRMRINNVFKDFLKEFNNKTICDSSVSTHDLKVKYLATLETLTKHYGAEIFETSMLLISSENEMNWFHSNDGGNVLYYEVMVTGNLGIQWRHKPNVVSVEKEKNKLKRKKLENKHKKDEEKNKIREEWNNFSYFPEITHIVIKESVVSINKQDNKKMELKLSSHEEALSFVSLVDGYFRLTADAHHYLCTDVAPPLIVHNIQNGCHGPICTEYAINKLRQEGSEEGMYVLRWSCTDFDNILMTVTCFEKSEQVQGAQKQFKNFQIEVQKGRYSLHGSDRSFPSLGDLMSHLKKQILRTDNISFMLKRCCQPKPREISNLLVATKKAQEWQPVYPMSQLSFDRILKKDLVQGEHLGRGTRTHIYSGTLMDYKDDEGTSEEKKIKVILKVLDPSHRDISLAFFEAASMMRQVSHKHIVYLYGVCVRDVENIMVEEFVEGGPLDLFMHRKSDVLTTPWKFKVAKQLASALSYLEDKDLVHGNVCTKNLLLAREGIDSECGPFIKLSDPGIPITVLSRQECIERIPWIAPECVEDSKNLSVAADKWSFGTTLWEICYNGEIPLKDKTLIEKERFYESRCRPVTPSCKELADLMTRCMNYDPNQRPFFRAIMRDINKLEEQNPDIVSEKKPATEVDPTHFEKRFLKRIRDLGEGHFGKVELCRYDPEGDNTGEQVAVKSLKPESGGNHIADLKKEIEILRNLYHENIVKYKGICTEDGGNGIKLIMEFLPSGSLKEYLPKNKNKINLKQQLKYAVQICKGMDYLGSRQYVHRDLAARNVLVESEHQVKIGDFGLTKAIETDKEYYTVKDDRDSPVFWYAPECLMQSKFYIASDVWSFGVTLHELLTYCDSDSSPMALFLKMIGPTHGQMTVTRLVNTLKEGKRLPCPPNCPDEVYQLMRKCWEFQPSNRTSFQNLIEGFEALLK

[6] = target: T3, Tyrosine-protein kinase JAK3 (Homo sapiens) (UniProt P52333); experiment: Induction of JAK3 degradation in human Jurkat cells at 1 uM incubated for 6 hrs by Western blot analysis
T3 sequence (whole entry): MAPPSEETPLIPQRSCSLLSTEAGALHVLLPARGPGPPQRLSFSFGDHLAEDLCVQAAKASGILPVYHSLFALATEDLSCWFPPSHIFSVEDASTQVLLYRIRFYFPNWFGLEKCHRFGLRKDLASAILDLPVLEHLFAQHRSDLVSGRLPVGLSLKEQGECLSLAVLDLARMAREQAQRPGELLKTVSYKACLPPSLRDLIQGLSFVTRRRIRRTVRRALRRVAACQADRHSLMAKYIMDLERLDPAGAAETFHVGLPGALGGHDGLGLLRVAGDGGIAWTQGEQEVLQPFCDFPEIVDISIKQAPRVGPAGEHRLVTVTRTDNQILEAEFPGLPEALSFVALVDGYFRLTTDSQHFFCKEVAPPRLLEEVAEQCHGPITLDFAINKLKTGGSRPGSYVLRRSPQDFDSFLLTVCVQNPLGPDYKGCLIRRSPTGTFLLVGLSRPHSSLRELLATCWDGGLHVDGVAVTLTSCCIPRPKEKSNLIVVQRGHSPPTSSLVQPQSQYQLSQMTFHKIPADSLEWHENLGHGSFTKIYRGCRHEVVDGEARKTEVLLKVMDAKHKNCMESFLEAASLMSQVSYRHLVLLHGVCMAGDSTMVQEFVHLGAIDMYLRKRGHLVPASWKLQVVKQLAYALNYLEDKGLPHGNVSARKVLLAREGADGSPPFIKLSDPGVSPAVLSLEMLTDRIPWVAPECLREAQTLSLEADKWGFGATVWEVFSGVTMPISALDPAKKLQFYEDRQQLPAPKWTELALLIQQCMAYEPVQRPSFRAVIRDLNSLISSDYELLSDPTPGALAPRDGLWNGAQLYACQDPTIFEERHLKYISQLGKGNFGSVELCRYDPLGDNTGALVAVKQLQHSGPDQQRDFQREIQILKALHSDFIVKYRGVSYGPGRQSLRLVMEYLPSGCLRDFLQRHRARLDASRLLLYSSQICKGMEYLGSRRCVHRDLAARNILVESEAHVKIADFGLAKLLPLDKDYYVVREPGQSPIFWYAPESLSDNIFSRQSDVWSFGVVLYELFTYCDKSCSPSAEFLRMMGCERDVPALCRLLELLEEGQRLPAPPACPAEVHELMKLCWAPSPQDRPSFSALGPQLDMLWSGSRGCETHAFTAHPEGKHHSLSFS

[7] = target: T1, Non-receptor tyrosine-protein kinase TYK2; experiment: Induction of TYK2 degradation in human Jurkat cells at 1 uM incubated for 6 hrs by Western blot analysis
[8] = target: T1, Non-receptor tyrosine-protein kinase TYK2; experiment: Induction of TYK2 degradation in human Jurkat cells at 1 to 10 uM pretreated with MG-132 followed by compound treatment for 24 hrs by Western blot analysis; conditions: dose 1-10 µM
[9] = target: T1, Non-receptor tyrosine-protein kinase TYK2; experiment: Induction of TYK2 degradation in human Jurkat cells incubated for 24 hrs by Western blot analysis
[10] = target: T1, Non-receptor tyrosine-protein kinase TYK2; experiment: Induction of TYK2 degradation in human Jurkat cells at 1 uM by Western blot analysis; conditions: time 3-24 hrs, TDE = time-dependent effect
[11] = target: T1, Non-receptor tyrosine-protein kinase TYK2; experiment: Induction of TYK2 degradation in human Jurkat cells assessed as reduction in TYK2 mRNA expression level up to 10 uM incubated for 6 to 24 hrs by quantitative-PCR analysis; conditions: time 6-24 hrs
[12] = target: T1, Non-receptor tyrosine-protein kinase TYK2; experiment: Induction of TYK2 degradation in human Jurkat cells at 1 uM incubated for 24 hrs relative to control
[13] = target: T1, Non-receptor tyrosine-protein kinase TYK2; experiment: Induction of TYK2 degradation in human Jurkat cells incubated for 24 hrs
[14] = target: T2, Tyrosine-protein kinase JAK1; experiment: Induction of JAK1 degradation in human Jurkat cells incubated for 24 hrs
[15] = target: T2, Tyrosine-protein kinase JAK1; experiment: Induction of JAK1 degradation in human Jurkat cells at 1 uM incubated for 24 hrs relative to control
[16] = target: T1, Non-receptor tyrosine-protein kinase TYK2; experiment: Induction of TYK2 degradation in human Jurkat cells at 100 nM incubated for 24 hrs relative to control
[17] = target: T2, Tyrosine-protein kinase JAK1; experiment: Induction of JAK1 degradation in human Jurkat cells at 10 uM incubated for 24 hrs relative to control

SMILES | Activity [3] | Activity [5] | Activity [6] | other results
Cc1ncsc1-c1ccc(CNC(=O)[C@@H]2C[C@@H](O)CN2C(=O)[C@@H](NC(=O)C2(C#N)CC2)C(C)(C)C)cc1 |  |  |  | Activity [1]: inactive; Activity [2]: Active
CNC(=O)c1cccc(Nc2cc(Nc3ccc(C(=O)NCCCCCCCCCC(=O)N[C@H](C(=O)N4C[C@H](O)C[C@H]4C(=O)NCc4ccc(-c5scnc5C)cc4)C(C)(C)C)cn3)ncc2C(N)=O)c1OC |  | Active |  | Emax [12]: 85%; DC50 [13]: 23 nM; DC50 [14]: 1100 nM; Emax [15]: 49%
CNC(=O)c1cnc(Nc2ccc(C(=O)NCCCCCCCCCC(=O)N[C@H](C(=O)N3C[C@H](O)C[C@H]3C(=O)NCc3ccc(-c4scnc4C)cc3)C(C)(C)C)cn2)cc1Nc1cccc(-c2ncn(C)n2)c1OC | Active |  |  | Emax [16]: 78%; DC50 [13]: 14 nM; Emax [17]: 25%; DC50 [14]: ≥ 10000 nM
CNC(=O)c1cnc(Nc2ccc(F)cn2)cc1Nc1cccc(C(=O)NC)c1OC |  |  |  | Activity [2]: Active
CNC(=O)c1cnc(Nc2ccc(C(=O)NCCCCCCCC(=O)N[C@H](C(=O)N3C[C@H](O)C[C@H]3C(=O)NCc3ccc(-c4scnc4C)cc3)C(C)(C)C)cn2)cc1Nc1cccc(C(=O)NC)c1OC | inactive | inactive | inactive | 
CNC(=O)c1cnc(Nc2ccc(C(=O)NCCCC(=O)N[C@H](C(=O)N3C[C@H](O)C[C@H]3C(=O)NCc3ccc(-c4scnc4C)cc3)C(C)(C)C)cn2)cc1Nc1cccc(C(=O)NC)c1OC | Active | Active | Active | 
CNC(=O)c1cnc(Nc2ccc(C(=O)NCCCCCC(=O)N[C@H](C(=O)N3C[C@H](O)C[C@H]3C(=O)NCc3ccc(-c4scnc4C)cc3)C(C)(C)C)cn2)cc1Nc1cccc(C(=O)NC)c1OC | inactive | inactive | inactive | 

Continued, in another order:

Activity [3] | Activity [5] | Activity [6] | SMILES | other results
inactive | inactive | inactive | CNC(=O)c1cnc(Nc2ccc(C(=O)NCCCCCCCCCC(=O)N[C@H](C(=O)N3C[C@H](O)C[C@H]3C(=O)NCc3ccc(-c4scnc4C)cc3)C(C)(C)C)cn2)cc1Nc1cccc(C(=O)NC)c1OC | Emax [4]: 77%; Activity [1]: Active; Activity [7]: Active; Activity [8]: Active; DC50 [9]: 230 nM; Activity [10]: Tde; Activity [11]: inactive
inactive | inactive | inactive | CNC(=O)c1cnc(Nc2ccc(C(=O)NCCCCCCCCC(=O)N[C@H](C(=O)N3C[C@H](O)C[C@H]3C(=O)NCc3ccc(-c4scnc4C)cc3)C(C)(C)C)cn2)cc1Nc1cccc(C(=O)NC)c1OC | 
inactive | inactive | inactive | CNC(=O)c1cnc(Nc2ccc(C(=O)NCCCCCCCCCCCC(=O)N[C@H](C(=O)N3C[C@H](O)C[C@H]3C(=O)NCc3ccc(-c4scnc4C)cc3)C(C)(C)C)cn2)cc1Nc1cccc(C(=O)NC)c1OC | 
inactive | inactive | inactive | CNC(=O)c1cnc(Nc2ccc(C(=O)NCCCCCCCCCCC(=O)N[C@H](C(=O)N3C[C@H](O)C[C@H]3C(=O)NCc3ccc(-c4scnc4C)cc3)C(C)(C)C)cn2)cc1Nc1cccc(C(=O)NC)c1OC | 
